Laboratory results taken from patent US20090197853A1, “METHODS AND COMPOSITIONS OF TREATING CANCER” (priority 2005, published 2009).

Columns and labels:
Ramos cells [1] = assay: Annexin-V apoptosis, Ramos; format: cell-based; settings: single agent alone
Method: Methods: Annexin V/PI. Cells from exponential phase cultures were treated with MGd, zinc, or control (5% mannitol) solution for 24 or 48 hours. After incubation, cells were harvested and washed twice with a solution of 0.5% bovine serum albumin (BSA) in Hanks buffered saline (HBSS). An aliquot of cells (1×10^6) was added to 500 μL diluted binding buffer from the ANNEXIN-V PI Kit (BD Biosciences, San Jose, Calif.). Cells were pelleted, re-suspended in 100 μL of diluted binding buffer, and treated with the ANNEXIN-V PI reagent as per the manufacturer's protocol.

PC3 cells = assay: Colony forming assay, PC3; format: cell-based; settings: 10 μM MGd, 75 μM zinc
[2] = HPLC analysis of MGd stability in medium from plateau phase cultures; format: physicochemical; settings: after 24 hours
Method: Results: Studies were performed to determine whether the metallothionein transcript up-regulation observed in the microarray analysis could be a consequence of free gadolinium(III) cation, released from MGd into the cell culture medium. […] Since the microarray analysis indicated strong transcript up-regulation after 4 hours of treatment with drug, this time interval was selected for further investigation of RNA transcript levels. RNA was harvested from plateau phase cultures treated with control vehicle, 50 μM MGd, or 5 μM Gd(OAc)3 for 4 hours. […] Thus, even assuming a 10% loss of drug over the initial 4 hour incubation period, the resulting release of Gd(III) ion into the culture medium would be insufficient to induce the observed metallothionein and ZnT1 transcript levels.

Ramos cells [3] = assay: Intracellular free zinc (FluoZin-3 fluorescence), Ramos; format: cell-based; settings: 10 μM MGd or 50 μM zinc alone
Method: Methods: Intracellular Free Zinc. The concentration of intracellular free zinc was assessed using the ion-specific fluorescent probe, FluoZin-3-AM™ (FluoZin-3, Molecular Probes, Inc.). […] Following treatment, cells were isolated by centrifugation. Cell pellets were washed and re-suspended in a solution of 0.5% BSA in PBS.

Ramos cells [4] = assay: Gene expression profiling on Human Genome U133 Plus 2.0 Arrays, Ramos cultures; format: cell-based; settings: 4 hours
Method: Methods: Gene Expression Profiling—MGd (10 μM), Zn(OAc)2 (25 or 50 μM, the combinations, or control (5% mannitol) solution were added to Ramos cultures. Each treatment was performed in triplicate. After 4 hours of incubation, all cultures were washed twice with 0.5% BSA in HBSS and total RNA was isolated and subjected to analysis on Human Genome U133 Plus 2.0 Arrays (Affymetrix, Santa Clara, Calif.). Microarray Suite version 5.0 software (Affymetrix) was used to generate raw gene expression scores and normalize the relative hybridization signal from each experiment. All gene expression scores were set to a minimum value of fifty in order to minimize noise associated with less robust measurements of rare transcripts. Both the parametric Student's t-test and the permutation-based significance analysis of microarrays (SAM) were used to determine genes differentially expressed in treatment versus control groups.

[5] = test system: A549 human lung cancer cells; assay: Gene expression profiling on Affymetrix U133A microarrays, plateau phase A549 cultures; format: cell-based; settings: 50 μM MGd
Method: Methods: A549 human lung cancer cells (6.5×10^5 cells per T-162 flask in 45 mL complete RPMI 1640 medium) were seeded 10 days prior to treatment of non-cycling plateau phase cultures with MGd. At 4, 12, or 24 hours prior to RNA isolation, MGd (50 μM final concentration) or control (5% mannitol) solution was added to the cultures. Each time course experiment was performed in triplicate. After incubation, all cultures were washed once with PBS and total RNA was subjected to analysis on Affymetrix U133A microarrays, designed to interrogate the relative abundance of over 15,000 human genes.
We used Microarray Suite version 5.0 software (Affymetrix) to generate raw gene expression scores and normalized the relative hybridization signal from each experiment. All gene expression scores were set to a minimum value of one hundred in order to minimize noise associated with less robust measurements of rare transcripts. The permutation-based significance analysis of microarrays (SAM) was used to determine genes differentially expressed in response to MGd treatment compared to the control 5% mannitol-treated cultures (0.125% final) at each time point. We report all genes at least 2-fold differentially expressed with a less than a 1% False Discovery Rate (FDR) in response to MGd treatment (FIG. 10).

Thioredoxin reductase = settings: plateau phase PC3 cultures
Method: Methods: Lipoate Reduction. Thioredoxin reductase activity was assessed by measuring the rate of lipoate reduction. In brief, A549 or PC3 cells (10,000 cells/well) were plated on 96-well plates and allowed to adhere overnight and grow two additional days until confluent. Cells were treated with MGd, zinc, or 5% mannitol for 2-4 hours, as indicated. Medium was removed, cells were washed with Hanks Balanced Salt Solution (HBSS), and a solution of 5 mM lipoic acid and 1 mM 5,5′-dithiobis(2-nitrobenzoic acid) in HBSS (100 μL/well) was added. Plates were incubated at ambient temperature in the dark. At chosen time intervals, plate absorbance was measured at 405-650 nm. Plate absorbances were normalized to wells containing neither exogenous zinc nor texaphyrin complex to allow plate-to-plate comparison. In some experiments, L-buthionine-[S,R]-sulfoximine (BSO, 100 μM) was added 24 hours prior to MGd or zinc treatment, to inhibit any contribution to lipoate reduction made by glutathione-dependent pathways (28). Actinomycin D (2.5 μg/mL) or cycloheximide (10 μg/mL), where present, was added 1 hour prior to texaphyrin or zinc treatment. Viability was checked on parallel plates using the tetrazolium dye 3-(4,5-dimethylthiazol-2-yl)-5-(3-carboxymethoxyphenyl)-2-(4-sulfophenyl)-2H-tetrazolium (MTS) following the manufacturers protocol (Promega Corp.).

[6] = test system: PC3 prostate cancer cells; assay: Cell viability by propidium iodide exclusion, PC3; format: cell-based
Method: Methods: Cellular Viability—Cell viability was determined by using propidium iodide (PI) flow cytometric analysis. Cells from plateau phase cultures grown in T-25 flasks were harvested as described above, except that cells present in the growth medium and wash solution were isolated by centrifugation and included in the analysis. Cells were resuspended in 1 mL PBS, an aliquot of 3×10^5 cells transferred to a 4 mL tube, and the cells isolated by centrifugation. Cell pellets were resuspended in PBS supplemented with 2 μg/mL propidium iodide (Sigma), incubated for 5 minutes at ambient temperature, and subjected to flow cytometric analysis.

[7] = test system: acute promyelocytic leukemia line (HL60); settings: 50 to 100 μM zinc
Method: Cellular Proliferation—The proliferation of exponential phase cultures was assessed by colorimetric assay. In brief, 2×10^5 suspension cells per well were seeded on 96-well V-bottom microtiter plates. Stock solutions of control vehicle, MGd or Zn(OAc)2 in medium were added and plates were incubated at 37° C. under a 5% CO2/95% air atmosphere. After 24 hours, medium was replaced with fresh medium. After 2 additional days, medium was exchanged with fresh medium (150 μL/well) supplemented with 3-(4,5-dimethylthiazol-2-yl)-2,5-diphenyltetrazolium bromide (MTT, 0.5 mg/mL, Sigma Biochemical, St. Louis, Mo.). Plates were incubated at 37° C. and viable cells measured.

Method for A549 cells: Methods: Cellular Viability. Cell viability was determined by using propidium iodide (PI) flow cytometric analysis. Cells from plateau phase cultures grown in T-25 flasks were harvested as described above, except that cells present in the growth medium and wash solution were isolated by centrifugation and included in the analysis. Cells were resuspended in 1 mL PBS, an aliquot of 3×10^5 cells transferred to a 4 mL tube, and the cells isolated by centrifugation. Cell pellets were resuspended in PBS supplemented with 2 μg/mL propidium iodide (Sigma), incubated for 5 minutes at ambient temperature, and subjected to flow cytometric analysis. Flow cytometry was performed on a FACSCalibur instrument and data were analyzed using the CellQuest Pro software package (BD Biosciences).

Compound: CC(=O)[O-].CC(=O)[O-].CCc1c(CC)c2cc3nc(cnc4cc(OCCOCCOCCOC)c(OCCOCCOCCOC)cc4ncc4nc(cc1[n-]2)C(CCCO)=C4C)C(C)=C3CCCO.O.[Gd+3] [MGd, Motexafin gadolinium]
- Annexin-V signal (Ramos cells [1]): No significant change
- Surviving fraction (PC3 cells): without effect
- Apparent loss of drug in medium (HPLC) [2]: 4%
- FluoZin-3 fluorescence (Ramos cells [3]; by 12 hours): returned to baseline levels
- FluoZin-3 fluorescence (Ramos cells [3]; within 2 hours): small increases
- MTF-1 regulated genes incl. metallothionein and zinc transporter family transcripts (Ramos cells [4]): up-regulation of MTF-1 regulated genes
- Effect of MGd on the cytotoxicity of Zn(OAc)2 (A549 cells): potentiated
- hbc647 transcript (likely 3′-UTR of ZnT1) ([5]; all three time points): up-regulated
- Metallothionein isoform transcripts (microarray) ([5]; all time points): up-regulation

Compound: CC(=O)[O-].CC(=O)[O-].[Zn+2] [Zn(OAc)2, Zinc acetate]
- Annexin-V signal (Ramos cells [1]): No significant change
- Surviving fraction (PC3 cells): without effect
- FluoZin-3 fluorescence (Ramos cells [3]; by 12 hours): returned to baseline levels
- FluoZin-3 fluorescence (Ramos cells [3]; within 2 hours): small increases
- Lipoate reduction (Thioredoxin reductase): inhibited at lower concentrations of zinc
- Increased cell death (propidium iodide exclusion) ([6]; PC3, within 48 hr, at 100 μM zinc): 2 fold
- Cell viability ([6]; plateau phase PC3, after 24 hr): little effect on cell viability
- Proliferation [7]: but not in an acute promyelocytic leukemia line (HL60)
